{"source": "patent US5543426A", "about": "“Use of certain 3,7-disubstituted indole compounds for treating depression or cognitive disorders” (priority 1990, dated 1996)", "key": {"5-HT3 binding sites": {"molecular_target": "T1, 5-HT3 binding sites (Mus musculus, UniProt P23979)", "T1 construct": "endogenous in cells; host or cells: N1E-115", "T1 sequence (P23979 24-489)": "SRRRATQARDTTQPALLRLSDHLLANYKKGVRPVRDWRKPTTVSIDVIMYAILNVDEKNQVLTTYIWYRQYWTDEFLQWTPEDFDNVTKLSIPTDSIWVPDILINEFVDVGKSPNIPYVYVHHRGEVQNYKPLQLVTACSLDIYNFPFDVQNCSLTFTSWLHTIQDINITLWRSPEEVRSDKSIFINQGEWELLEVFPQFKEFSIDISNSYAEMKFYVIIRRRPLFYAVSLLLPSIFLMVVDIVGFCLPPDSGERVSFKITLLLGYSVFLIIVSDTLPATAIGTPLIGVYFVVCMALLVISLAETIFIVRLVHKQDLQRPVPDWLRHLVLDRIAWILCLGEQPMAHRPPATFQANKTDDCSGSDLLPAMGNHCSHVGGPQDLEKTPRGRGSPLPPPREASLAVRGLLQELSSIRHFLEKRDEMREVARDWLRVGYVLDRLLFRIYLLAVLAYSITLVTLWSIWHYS", "assay": "binding to 5-HT3 binding sites, N1E-115 cells (method of Hoyer and Neijt)", "text": "1. their potent and selective binding properties to 5-HT3 binding sites, e.g. to N1E-115 cells measured according to the method disclosed by D. Hoyer and H.C. Neijt, Mol. Pharm., 33, 303-309."}, "Benzold Jarisch Reflex": {"test_system": "Benzold Jarisch Reflex", "assay": "blockade of the Benzold Jarisch Reflex (method of Fozard)", "type": "in vivo", "conditions": "read-out: ID50, blockade of the Benzold Jarisch Reflex", "method": "Pharmacol., 326, 36-44 (1984). Example compound has an ID50 of 70 μg/kg."}, "mice": {"test_system": "mice", "assay": "social stress model: plasma corticosterone rise induced by an aggressive, inaccessible male mouse", "type": "in vivo", "conditions": "p.o., 0.1 to 1 mg/kg", "method": "The compounds of the invention also reduce the plasma corticosterone rise induced in mice by the presence of an aggressive, but inaccessible male mouse. Compounds of the invention when given p.o. for 14 days at a dosage of from about 0.1 to 10 mg/kg restore the plasma corticosterone level to normal.\nThe Example compound is preferred."}, "gastric emptying in rats": {"test_system": "gastric emptying in rats", "assay": "gastric emptying of glass spheres in rats", "type": "in vivo", "conditions": "Rattus norvegicus, ip, given 15 min before 25 glass spheres, emptying measured 5, 10, 15 and 30 min after, read-out: ED50, promoting effect on gastric emptying", "method": "2. their promoting effect on gastric emptying in rats as indicated in standard in vivo tests when administered i.p. at doses of about 0.01 to about 1 mg/kg. The compounds to be tested are administered 15 min. before the administration of 25 glass spheres and gastric emptying is measured 5, 10, 15 and 30 min. after administration of the spheres. Example compound has an ED50 of 0.2 mg/kg i.p."}}}
{"smiles": "COc1cccc2c(C(=O)O[C@H]3C[C@H]4CC[C@@H](C3)N4C)c[nH]c12", "note": "[Example compound, 7-Methoxy-1H-indol-3-carboxylic acid-(1αH, 5αH)-8-methyl-8-aza-bicyclo3,2,1oct-3α-yl-ester]", "values": [{"measurement": "Kd", "setting": "5-HT3 binding sites", "result": 1.35, "unit": "nM"}, {"measurement": "ED50", "setting": "Benzold Jarisch Reflex", "result": 0.07, "unit": "mg/kg"}, {"measurement": "stress-induced corticosterone concentration in plasma", "setting": "mice", "result": "reduces the stress-induced corticosterone concentration in plasma"}, {"measurement": "ED50", "setting": "gastric emptying in rats", "result": 0.2, "unit": "mg/kg"}]}
